Several values for one entry are separate records, joined by “and”; a condition that tells them apart may be missing. Equal values may be shown once. Read-outs that look alike come from different tables or passages of the source.
Columns and labels:
Phytophthora palmivora = conditions: S-enantiomer versus R-enantiomer of metalaxyl; cited from earlier work
[1] = Degradation behaviour in sandy soil under laboratory conditions; parameters: degradation equation Ct, rate constant in exponent: unit: 1/day; conditions: sand; for degradation equation Ct, pre-exponential factor / degradation equation Ct, rate constant in exponent: first-order fit; for degradation equation Ct, rate constant in exponent: e^(-k*t); for DT-50 (50% degradation) / DT-90 (90% degradation): from degradation curve FIG. 2
Protocol: Degradation Behaviour of Racemic Metalaxyl and R-metalaxyl in Sandy Soil
Two groups of 16 samples each of biologically active soil (sandy soil; loam: 5.1%; silt: 11.4%; sand: 83.5%; organic carbon: 1.6%; pH 4; biomass: 51 mg microbial carbon/100 g soil; origin: Collombey, Valais, Switzerland)are treated in parallel with racemic metalaxyl or R-metalaxyl, respectively, in each case in acetonic solution. The rate of application is 0.5 mg/kg of soil sample, which corresponds to a rate of application of 0.5 kg/hectare. The results are evaluated in duplicate after 0, 1, 3, 7, 9, 15, 21 and 29 days.

[2] = tested on: metalaxyl-sensitive strain of Plasmopara viticola; assay: Foliar spray on vine plantlets infected with Plasmopara viticola (two-leaf and three-leaf stage sprayings); format: in vivo
Protocol: Vine plantlets cv. "Gutedel" are grown under greenhouse conditions using one plant per pot (.O slashed.=6 cm) and sprayed with a spray broth prepared from an emulsion concentrate, either in the two-leaf stage or in the three-leaf stage. The following concentrations of active ingredient are used per batch of 4 plants: 200; 60; 20; 6; 2; 0.6; 0.2; 0.06 mg of a.i./liter. This dilution series is prepared in demineralized water immediately prior to application as a foliar spray. To exclude a gas-phase effect of the a.i. in the vicinity, all plants are separated from each other on the side using translucent plastic foils and kept in the dark for one day at 20°-22° C. and a relative humidity of approximately 100%.
Then, the entire leaf surface area of the plants is uniformly sprayed to drip point with a freshly prepared sporangia suspension (120 000/ml) of a metalaxyl-sensitive strain of Plasmopara viticola. The plants are then kept for 7 days under a 16 hour photoperiod with artificial daylight at 20°-22° C. and a relative humidity of approximately 100%. This is followed by evaluation of the infestation, separating three-leaf and two-leaf stage sprayings. The tables show in each case the average of 4 parallel sprayings.

[3] = Degradation behaviour in moderately heavy soil (silt/loam) under laboratory conditions; conditions: for degradation equation Ct, pre-exponential factor: first-order fit; for DT-50 (50% degradation) / DT-90 (90% degradation): from degradation curve FIG. 1
Protocol: Degradation Behaviour of Racemic Metalaxyl and R-metalaxyl in Moderately Heavy Soil
Two groups of 8 samples each of biologically active soil (silt/loam; loam: 13.9%; silt: 54.3%; sand: 31.8%; organic carbon: 2.1%; pH 7.3; biomass: 65.1 mg microbial carbon per 100 g soil; origin: Les Evouettes, Valais, Switzerland) are treated in parallel with racemic metalaxyl or R-metalaxyl, respectively, in each case in acetonic solution. The rate of application is 0.5 mg/kg of soil sample, which corresponds to a rate of application of 0.5 kg/hectare. The results are evaluated in duplicate after 0, 7, 14 and 21 days.

[4] = 20° C., cited from earlier work
[5] = day 1, mean of duplicate, 1440 min
[6] = day 3, mean of duplicate, 4320 min
[7] = day 7, mean of duplicate, 10080 min
[8] = day 7, single sample, 10080 min
[9] = day 9, mean of duplicate, 12960 min
[10] = day 9, single sample, 12960 min
[11] = day 15, mean of duplicate, 21600 min
[12] = day 15, single sample, 21600 min
[13] = day 21, mean of duplicate, 30240 min
[14] = day 21, single sample, 30240 min
[15] = day 29, mean of duplicate, 41760 min
[16] = day 29, single sample, 41760 min
[17] = three-leaf stage, 0.06 mg of a.i./liter, untreated control 92
[18] = three-leaf stage, 0.2 mg of a.i./liter, untreated control 92
[19] = three-leaf stage, 0.6 mg of a.i./liter, untreated control 92
[20] = three-leaf stage, 2 mg of a.i./liter, untreated control 92
[21] = three-leaf stage, 6 mg of a.i./liter, untreated control 92
[22] = three-leaf stage, 20 mg of a.i./liter, untreated control 92
[23] = three-leaf stage, 60 mg of a.i./liter, untreated control 92
[24] = three-leaf stage, 200 mg of a.i./liter, untreated control 92
[25] = two-leaf stage, 0.06 mg of a.i./liter, untreated control 96
[26] = two-leaf stage, 0.2 mg of a.i./liter, untreated control 96
[27] = two-leaf stage, 0.6 mg of a.i./liter, untreated control 96
[28] = two-leaf stage, 2 mg of a.i./liter, untreated control 96
[29] = two-leaf stage, 6 mg of a.i./liter, untreated control 96
[30] = two-leaf stage, 20 mg of a.i./liter, untreated control 96
[31] = two-leaf stage, 60 mg of a.i./liter, untreated control 96
[32] = two-leaf stage, 200 mg of a.i./liter, untreated control 96
[33] = day 14, mean of duplicate, 20160 min
[34] = day 14, single sample, 20160 min

COCC(=O)N(c1c(C)cccc1C)[C@@H](C)C(=O)OC [S-enantiomer of metalaxyl]
ED50 inhibitory value in nucleic acid synthesis relative to R-enantiomer (times more unfavorable) (Phytophthora palmivora): approximately fifty

COCC(=O)N(c1c(C)cccc1C)[C@H](C)C(=O)OC [R-metalaxyl]
Rate of degradation (% of applied), mean ([1]; day 0, mean of duplicate): 100.02 % of applied | Rate of degradation (% of applied) ([1]; day 0, single sample): 100.32 % of applied and 99.72 % of applied | Rate of degradation (% of applied), mean [1, 5]: 89.64 % of applied | Rate of degradation (% of applied) ([1]; day 1, single sample, 1440 min): 89.16 % of applied and 90.13 % of applied | Rate of degradation (% of applied), mean [1, 6]: 75.48 % of applied | Rate of degradation (% of applied) ([1]; day 3, single sample, 4320 min): 76.96 % of applied and 74.01 % of applied | Rate of degradation (% of applied), mean [1, 7]: 52.59 % of applied | Rate of degradation (% of applied) [1, 8]: 52.59 % of applied | Rate of degradation (% of applied), mean [1, 9]: 46.84 % of applied | Rate of degradation (% of applied) [1, 10]: 47.22 % of applied and 46.45 % of applied | Rate of degradation (% of applied), mean [1, 11]: 27.33 % of applied | Rate of degradation (% of applied) [1, 12]: 24.77 % of applied and 29.89 % of applied | Rate of degradation (% of applied), mean [1, 13]: 17.09 % of applied | Rate of degradation (% of applied) [1, 14]: 17.12 % of applied and 17.05 % of applied | Rate of degradation (% of applied), mean [1, 15]: 8.72 % of applied | Rate of degradation (% of applied) [1, 16]: 8.82 % of applied and 8.62 % of applied | degradation equation Ct, pre-exponential factor [1]: 98.54 | degradation equation Ct, rate constant in exponent [1]: 0.08548 | DT-50 (50% degradation) [1]: 8.1 days | DT-90 (90% degradation) [1]: 26.9 days | Foliar infestation [2, 17]: 93% | Foliar infestation [2, 18]: 78% | Foliar infestation [2, 19]: 0% | Foliar infestation [2, 20]: 0% | Foliar infestation [2, 21]: 0% | Foliar infestation [2, 22]: 0% | Foliar infestation [2, 23]: 0% | Foliar infestation [2, 24]: 0% | activity relative to racemic metalaxyl ([2]; three-leaf stage, up to 0.6 mg of a.i./liter): approximately 100 times | Foliar infestation [2, 25]: 92% | Foliar infestation [2, 26]: 97% | Foliar infestation [2, 27]: 78% | Foliar infestation [2, 28]: 4% | Foliar infestation [2, 29]: 0% | Foliar infestation [2, 30]: 0% | Foliar infestation [2, 31]: 0% | Foliar infestation [2, 32]: 0% | activity relative to racemic metalaxyl ([2]; two-leaf stage, up to dilutions of 2 mg of a.i./liter): up to 30 times | Compound remaining in soil (% of applied) ([3]; day 0, mean of duplicate): 96.28 % of applied | Compound remaining in soil (% of applied) ([3]; day 0, single sample): 93.61 % of applied and 98.94 % of applied | Compound remaining in soil (% of applied) [3, 7]: 25.23 % of applied | Compound remaining in soil (% of applied) [3, 8]: 24.74 % of applied and 25.7 % of applied | Compound remaining in soil (% of applied) [3, 33]: 9.85 % of applied | Compound remaining in soil (% of applied) [3, 34]: 9.07 % of applied and 10.62 % of applied | Compound remaining in soil (% of applied) [3, 13]: 7.69 % of applied | Compound remaining in soil (% of applied) [3, 14]: 7.57 % of applied and 7.82 % of applied | degradation equation Ct, pre-exponential factor [3]: 95.9 | DT-50 (50% degradation) [3]: 3.9 days | DT-90 (90% degradation) [3]: 13.0 days

COCC(=O)N(c1c(C)cccc1C)C(C)C(=O)OC (racemic) [racemic metalaxyl, N-(2,6-dimethylphenyl)-N-(methoxyacetyl)-DL-alanine methyl ester]
DT-50 (hydrolytic half-life) ([4]; pH1): > 200 days | DT-50 (hydrolytic half-life) ([4]; pH9): 115 days | Rate of degradation (% of applied), mean ([1]; day 0, mean of duplicate): 97.78 % of applied | Rate of degradation (% of applied) ([1]; day 0, single sample): 98.00 % of applied and 97.56 % of applied | Rate of degradation (% of applied), mean [1, 5]: 87.82 % of applied | Rate of degradation (% of applied) ([1]; day 1, single sample, 1440 min): 87.75 % of applied and 87.88 % of applied | Rate of degradation (% of applied), mean [1, 6]: 80.01 % of applied | Rate of degradation (% of applied) ([1]; day 3, single sample, 4320 min): 80.32 % of applied and 79.69 % of applied | Rate of degradation (% of applied), mean [1, 7]: 65.01 % of applied | Rate of degradation (% of applied) [1, 8]: 65.41 % of applied and 64.60 % of applied | Rate of degradation (% of applied), mean [1, 9]: 56.26 % of applied | Rate of degradation (% of applied) [1, 10]: 55.84 % of applied and 56.68 % of applied | Rate of degradation (% of applied), mean [1, 11]: 42.54 % of applied | Rate of degradation (% of applied) [1, 12]: 43.49 % of applied and 41.58 % of applied | Rate of degradation (% of applied), mean [1, 13]: 31.99 % of applied | Rate of degradation (% of applied) [1, 14]: 30.77 % of applied and 33.21 % of applied | Rate of degradation (% of applied), mean [1, 15]: 28.49 % of applied | Rate of degradation (% of applied) [1, 16]: 28.70 % of applied and 28.28 % of applied | degradation equation Ct, pre-exponential factor [1]: 93.67 | degradation equation Ct, rate constant in exponent [1]: 0.05006 | DT-50 (50% degradation) [1]: 13.9 days | DT-90 (90% degradation) [1]: 46.0 days | Foliar infestation [2, 17]: 92% | Foliar infestation [2, 18]: 90% | Foliar infestation [2, 19]: 96% | Foliar infestation [2, 20]: 80% | activity ([2]; three-leaf stage, 6 mg of a.i./liter (or less)): virtually no activity | Foliar infestation [2, 21]: 85% | Foliar infestation [2, 22]: 27% | activity ([2]; three-leaf stage, 20 mg/liter): a more clear-cut activity is only discernible | Foliar infestation [2, 23]: 0% | Foliar infestation [2, 24]: 0% | Foliar infestation [2, 25]: 96% | Foliar infestation [2, 26]: 97% | Foliar infestation [2, 27]: 100% | Foliar infestation [2, 28]: 87% | Foliar infestation [2, 29]: 76% | Foliar infestation [2, 30]: 38% | Foliar infestation [2, 31]: 0% | Foliar infestation [2, 32]: 0% | effect for practical purposes ([2]; two-leaf stage, below 20 mg of a.i./liter): without effect for practical purposes | action against foliar infestation ([2]; two-leaf stage, below 60 mg of a.i./liter): does not result in a clear-cut action against foliar infestation | Compound remaining in soil (% of applied) ([3]; day 0, mean of duplicate): 90.39 % of applied | Compound remaining in soil (% of applied) ([3]; day 0, single sample): 90.41 % of applied and 90.36 % of applied | Compound remaining in soil (% of applied) [3, 7]: 46.23 % of applied | Compound remaining in soil (% of applied) [3, 8]: 47.28 % of applied and 45.17 % of applied | Compound remaining in soil (% of applied) [3, 33]: 35.71 % of applied | Compound remaining in soil (% of applied) [3, 34]: 35.88 % of applied and 35.54 % of applied | Compound remaining in soil (% of applied) [3, 13]: 29.20 % of applied | Compound remaining in soil (% of applied) [3, 14]: 29.34 % of applied and 29.06 % of applied | degradation equation Ct, pre-exponential factor [3]: 86.66 | DT-50 (50% degradation) [3]: 10.8 days | DT-90 (90% degradation) [3]: 35.7 days
